Source: ChEMBL document CHEMBL5030514, “Discovery of Anti-TNBC Agents Targeting PTP1B: Total Synthesis, Structure-Activity Relationship, In Vitro and In Vivo Investigations of Jamunones” (J Med Chem, 2021)

Columns and labels:
MDA-MB-231 = experiment: Antiproliferative activity against human MDA-MB-231 cells measured by MTT assay; assay type: functional, cell-based
MCF7 = experiment: Antiproliferative activity against human MCF-7 cells measured by MTT assay; assay type: functional, cell-based

CCCCCCCCCCCCCCCc1cc(=O)c2c(O)c(C)c(OCOC)c(C)c2o1
IC50 (MDA-MB-231): > 87 µM | IC50 (MCF7): > 67.3 µM

CCCCCCCCCCCCCCCC1(O)CC(=O)c2c(O)cc(OCOC)cc2O1 (stereo not given)
IC50 (MDA-MB-231): > 87 µM | IC50 (MCF7): > 67.3 µM

CCCC/C=C\CCCCCCCCCc1cc(=O)c2c(O)cc(O)c(C)c2o1
IC50 (MDA-MB-231): 6.79 µM | IC50 (MCF7): 17.5 µM

CCCC/C=C\CCCCCCCCCc1cc(=O)c2c(O)c(C)c(OCOC)c(C)c2o1
IC50 (MDA-MB-231): > 87 µM | IC50 (MCF7): > 67.3 µM

CCCCCCCCCCCCCCCC1(O)CC(=O)c2c(O)c(C)c(O)c(C)c2O1 (stereo not given)
IC50 (MDA-MB-231): 16.1 µM | IC50 (MCF7): > 100 µM

CCCCCCCCCCCCCCCc1cc(=O)c2c(O)cc(O)c(C)c2o1
IC50 (MDA-MB-231): 6.79 µM | IC50 (MCF7): 17.5 µM

CC/C=C\C/C=C\C/C=C\CCCCCCCc1cc(=O)c2c(O)cc(O)cc2o1
IC50 (MDA-MB-231): 6.79 µM | IC50 (MCF7): 17.5 µM

CCCCC/C=C\C/C=C\CCCCCCCc1cc(=O)c2c(O)cc(O)cc2o1
IC50 (MDA-MB-231): 6.79 µM | IC50 (MCF7): 17.5 µM

CCCC/C=C\CCCCCCCCCc1cc(=O)c2c(O)c(C)c(OCOC)cc2o1
IC50 (MDA-MB-231): > 87 µM | IC50 (MCF7): > 67.3 µM

CCCCC/C=C\C/C=C\CCCCCCCc1cc(=O)c2c(O)c(C)c(O)c(C)c2o1
IC50 (MDA-MB-231): 16.1 µM | IC50 (MCF7): > 84.1 µM

CCCCCCCCCCCCCCCc1cc(=O)c2c(O)cc(OCOC)c(C)c2o1
IC50 (MDA-MB-231): > 87 µM | IC50 (MCF7): > 67.3 µM

CCCC/C=C\CCCCCCCCCc1cc(=O)c2c(O)cc(OCOC)c(C)c2o1
IC50 (MDA-MB-231): > 87 µM | IC50 (MCF7): > 67.3 µM

CCCCC/C=C\C/C=C\CCCCCCCc1cc(=O)c2c(O)c(C)c(O)cc2o1
IC50 (MDA-MB-231): 16.1 µM | IC50 (MCF7): > 84.1 µM

CCCC/C=C\CCCCCCCCCc1cc(=O)c2c(O)cc(OCOC)cc2o1
IC50 (MDA-MB-231): > 87 µM | IC50 (MCF7): > 67.3 µM

CCCCC/C=C\C/C=C\CCCCCCCc1cc(=O)c2c(O)cc(OCOC)cc2o1
IC50 (MDA-MB-231): > 87 µM | IC50 (MCF7): > 67.3 µM

CCCCCCCCCCCC1(O)CC(=O)c2c(O)cc(O)cc2O1 (stereo not given)
IC50 (MDA-MB-231): 42.8 µM | IC50 (MCF7): 43.2 µM

CCCCC/C=C\C/C=C\CCCCCCCc1cc(=O)c2c(O)c(C)c(OCOC)c(C)c2o1
IC50 (MDA-MB-231): 16.1 µM | IC50 (MCF7): > 84.1 µM

CCCCCCCCCCCCCCCC1(O)CC(=O)c2c(O)cc(O)cc2O1 (stereo not given)
IC50 (MDA-MB-231): 6.79 µM | IC50 (MCF7): 17.5 µM

CC/C=C\C/C=C\C/C=C\CCCCCCCc1cc(=O)c2c(O)cc(OCOC)cc2o1
IC50 (MDA-MB-231): 6.79 µM | IC50 (MCF7): 17.5 µM

CCCC/C=C\CCCCCCCCCC1(O)CC(=O)c2c(O)cc(OCOC)cc2O1 (stereo not given)
IC50 (MDA-MB-231): 42.8 µM | IC50 (MCF7): 43.2 µM

CCCCC/C=C\C/C=C\CCCCCCCC1(O)CC(=O)c2c(O)c(C)c(O)c(C)c2O1 (stereo not given)
IC50 (MDA-MB-231): 42.8 µM | IC50 (MCF7): 43.2 µM

CC/C=C\C/C=C\C/C=C\CCCCCCCC1(O)CC(=O)c2c(O)cc(O)cc2O1 (stereo not given)
IC50 (MDA-MB-231): 6.79 µM | IC50 (MCF7): 17.5 µM

CC/C=C\C/C=C\C/C=C\CCCCCCCC1(O)CC(=O)c2c(O)cc(OCOC)cc2O1 (stereo not given)
IC50 (MDA-MB-231): 6.79 µM | IC50 (MCF7): 17.5 µM

CCCCCCCCCCCCCCCc1cc(=O)c2c(O)c(C)c(O)cc2o1
IC50 (MDA-MB-231): 42.8 µM | IC50 (MCF7): 43.2 µM

CC/C=C\C/C=C\C/C=C\CCCCCCCc1cc(=O)c2c(O)cc(O)c(C)c2o1
IC50 (MDA-MB-231): 6.79 µM | IC50 (MCF7): 17.5 µM

CCCCC/C=C\C/C=C\CCCCCCCc1cc(=O)c2c(O)cc(O)c(C)c2o1
IC50 (MDA-MB-231): 6.79 µM | IC50 (MCF7): 17.5 µM

CC/C=C\C/C=C\C/C=C\CCCCCCCc1cc(=O)c2c(O)c(C)c(O)c(C)c2o1
IC50 (MDA-MB-231): 6.79 µM | IC50 (MCF7): 17.5 µM

CCCC/C=C\CCCCCCCCCc1cc(=O)c2c(O)c(C)c(O)c(C)c2o1
IC50 (MDA-MB-231): > 87 µM | IC50 (MCF7): > 67.3 µM

CCCC/C=C\CCCCCCCCCc1cc(=O)c2c(O)cc(O)cc2o1
IC50 (MDA-MB-231): 6.79 µM | IC50 (MCF7): 17.5 µM

CC/C=C\C/C=C\C/C=C\CCCCCCCc1cc(=O)c2c(O)cc(OCOC)c(C)c2o1
IC50 (MDA-MB-231): 6.79 µM | IC50 (MCF7): 17.5 µM

CCCCC1(O)CC(=O)c2c(O)cc(O)cc2O1 (stereo not given)
IC50 (MDA-MB-231): > 87 µM | IC50 (MCF7): > 67.3 µM

CC/C=C\C/C=C\C/C=C\CCCCCCCC1(O)CC(=O)c2c(O)c(C)c(O)c(C)c2O1 (stereo not given)
IC50 (MDA-MB-231): 42.8 µM | IC50 (MCF7): 43.2 µM

CCCCCCCCCCCCCCCCCCCC1(O)CC(=O)c2c(O)cc(O)cc2O1 (stereo not given)
IC50 (MDA-MB-231): > 87 µM | IC50 (MCF7): > 67.3 µM

CCCC/C=C/CCCCCCCCCC1(O)CC(=O)c2c(O)cc(O)cc2O1 (stereo not given)
IC50 (MDA-MB-231): 18.7 µM | IC50 (MCF7): 33.9 µM

CCCCC/C=C\C/C=C\CCCCCCCc1cc(=O)c2c(O)cc(OCOC)c(C)c2o1
IC50 (MDA-MB-231): 16.1 µM | IC50 (MCF7): > 84.1 µM

CCCCCCCCCCCCCCCc1cc(=O)c2c(O)cc(O)cc2o1
IC50 (MDA-MB-231): 6.79 µM | IC50 (MCF7): 17.5 µM

CCCCC/C=C\C/C=C\CCCCCCCc1cc(=O)c2c(O)c(C)c(OCOC)cc2o1
IC50 (MDA-MB-231): > 87 µM | IC50 (MCF7): > 67.3 µM

CCCCCCCCCCCCCCCc1cc(=O)c2c(O)c(C)c(OCOC)cc2o1
IC50 (MDA-MB-231): > 87 µM | IC50 (MCF7): > 67.3 µM

CCCCCCCCCCCCCCCc1cc(=O)c2c(O)c(C)c(O)c(C)c2o1
IC50 (MDA-MB-231): > 87 µM | IC50 (MCF7): > 67.3 µM

CCCCC/C=C\C/C=C\CCCCCCCC1(O)CC(=O)c2c(O)cc(O)cc2O1 (stereo not given)
IC50 (MDA-MB-231): 6.79 µM | IC50 (MCF7): 17.5 µM

CCCC/C=C\CCCCCCCCCc1cc(=O)c2c(O)c(C)c(O)cc2o1
IC50 (MDA-MB-231): 42.8 µM | IC50 (MCF7): 43.2 µM

CC/C=C\C/C=C\C/C=C\CCCCCCCc1cc(=O)c2c(O)c(C)c(OCOC)cc2o1
IC50 (MDA-MB-231): 6.79 µM | IC50 (MCF7): 17.5 µM

CCCCC/C=C\C/C=C\CCCCCCCC1(O)CC(=O)c2c(O)cc(OCOC)cc2O1 (stereo not given)
IC50 (MDA-MB-231): 16.1 µM | IC50 (MCF7): > 84.1 µM

CC/C=C\C/C=C\C/C=C\CCCCCCCc1cc(=O)c2c(O)c(C)c(OCOC)c(C)c2o1
IC50 (MDA-MB-231): 16.1 µM | IC50 (MCF7): > 84.1 µM

CC/C=C\C/C=C\C/C=C\CCCCCCCc1cc(=O)c2c(O)c(C)c(O)cc2o1
IC50 (MDA-MB-231): 6.79 µM | IC50 (MCF7): 17.5 µM
